#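 Grown in 96-well plates, cells were treated for 48 hours with each compound at five concentrations. Insufficient inhibition: endpoint recorded as highest concentration tested. At the TGI there is no net growth.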
# Tests used:
# Experiment in all cases: NCI tumour cell line growth inhibition, 48 h
# UO-31 renal = tested on: UO-31 renal
# SK-MEL-5 melanoma = tested on: SK-MEL-5 melanoma
# SK-MEL-2 melanoma = tested on: SK-MEL-2 melanoma
# SF-268 CNS = tested on: SF-268 CNS
# SR leukemia = tested on: SR leukemia
# HCC-2998 colon = tested on: HCC-2998 colon
# CCRF-CEM leukemia = tested on: CCRF-CEM leukemia
# U251 CNS = tested on: U251 CNS
# NCI/ADR-RES ovarian = tested on: NCI/ADR-RES ovarian
# MDA-N = tested on: MDA-N
# NCI-H460 lung = tested on: NCI-H460 lung
# EKVX NSCLC = tested on: EKVX NSCLC
# M14 melanoma = tested on: M14 melanoma
# SN12C renal = tested on: SN12C renal
# A549 NSCLC = tested on: A549 NSCLC
# KM12 colon = tested on: KM12 colon
# OVCAR-3 ovarian = tested on: OVCAR-3 ovarian
# MALME-3M melanoma = tested on: MALME-3M melanoma
# LOX IMVI melanoma = tested on: LOX IMVI melanoma
# A498 renal = tested on: A498 renal
# CAKI-1 renal = tested on: CAKI-1 renal
# OVCAR-8 ovarian = tested on: OVCAR-8 ovarian
# HCT-15 colon = tested on: HCT-15 colon
# RPMI-8226 leukemia = tested on: RPMI-8226 leukemia
# SF-539 CNS = tested on: SF-539 CNS
# SNB-19 CNS = tested on: SNB-19 CNS
# HCT-116 colon = tested on: HCT-116 colon
# NCI-H23 lung = tested on: NCI-H23 lung
# HOP-92 NSCLC = tested on: HOP-92 NSCLC
# ACHN renal = tested on: ACHN renal
# T-47D breast = tested on: T-47D breast
# COLO 205 colon = tested on: COLO 205 colon
# HOP-62 NSCLC = tested on: HOP-62 NSCLC
# 786-0 renal = tested on: 786-0 renal
# HT29 colon = tested on: HT29 colon
# UACC-257 melanoma = tested on: UACC-257 melanoma
# MOLT-4 leukemia = tested on: MOLT-4 leukemia
# RXF 393 renal = tested on: RXF 393 renal
# K-562 leukemia = tested on: K-562 leukemia
# TK-10 renal = tested on: TK-10 renal
# MDA-MB-435 = tested on: MDA-MB-435
# OVCAR-5 ovarian = tested on: OVCAR-5 ovarian
# IGROV1 ovarian = tested on: IGROV1 ovarian
# HS 578T breast = tested on: HS 578T breast
# NCI-H226 lung = tested on: NCI-H226 lung
# SK-OV-3 ovarian = tested on: SK-OV-3 ovarian
# MDA-MB-231 breast = tested on: MDA-MB-231 breast
# NCI-H522 lung = tested on: NCI-H522 lung
# MCF7 breast = tested on: MCF7 breast
# DU-145 prostate = tested on: DU-145 prostate
# PC-3 prostate = tested on: PC-3 prostate
# HL-60(TB) leukemia = tested on: HL-60(TB) leukemia
# UACC-62 melanoma = tested on: UACC-62 melanoma
# SNB-75 CNS = tested on: SNB-75 CNS
# SW-620 colon = tested on: SW-620 colon
# SF-295 CNS = tested on: SF-295 CNS
# SK-MEL-28 melanoma = tested on: SK-MEL-28 melanoma
# BT-549 breast = tested on: BT-549 breast
# OVCAR-4 ovarian = tested on: OVCAR-4 ovarian
compound,measurement,setting,value
c1ccc([P+](CC[P+](c2ccccc2)(c2ccccc2)c2ccccc2)(c2ccccc2)c2ccccc2)cc1,TGI,UO-31 renal,> 100 µM
same,TGI,SK-MEL-5 melanoma,39.6 µM
same,TGI,SK-MEL-2 melanoma,43.6 µM
same,TGI,SF-268 CNS,> 100 µM
same,TGI,SR leukemia,> 79.8 µM
same,TGI,HCC-2998 colon,44.5 µM
same,TGI,CCRF-CEM leukemia,2.95 µM
same,TGI,U251 CNS,21 µM
same,TGI,NCI/ADR-RES ovarian,> 100 µM
same,TGI,MDA-N,> 61.8 µM
same,TGI,NCI-H460 lung,35 µM
same,TGI,EKVX NSCLC,> 100 µM
same,TGI,M14 melanoma,> 100 µM
same,TGI,SN12C renal,> 100 µM
same,TGI,A549 NSCLC,> 100 µM
same,TGI,KM12 colon,> 100 µM
same,TGI,OVCAR-3 ovarian,> 59.7 µM
same,TGI,MALME-3M melanoma,> 63.4 µM
same,TGI,LOX IMVI melanoma,> 100 µM
same,TGI,A498 renal,> 100 µM
same,TGI,CAKI-1 renal,> 100 µM
same,TGI,OVCAR-8 ovarian,> 100 µM
same,TGI,HCT-15 colon,> 100 µM
same,TGI,RPMI-8226 leukemia,7.79 µM
same,TGI,SF-539 CNS,> 44.5 µM
same,TGI,SNB-19 CNS,> 100 µM
same,TGI,HCT-116 colon,> 100 µM
same,TGI,NCI-H23 lung,> 100 µM
same,TGI,HOP-92 NSCLC,> 92.3 µM
same,TGI,ACHN renal,> 100 µM
same,TGI,T-47D breast,> 58.8 µM
same,TGI,COLO 205 colon,24.9 µM
same,TGI,HOP-62 NSCLC,> 100 µM
same,TGI,786-0 renal,> 100 µM
same,TGI,HT29 colon,> 100 µM
same,TGI,UACC-257 melanoma,11 µM
same,TGI,MOLT-4 leukemia,> 100 µM
same,TGI,RXF 393 renal,> 83.4 µM
same,TGI,K-562 leukemia,> 100 µM
same,TGI,TK-10 renal,> 67.3 µM
same,TGI,MDA-MB-435,45.5 µM
same,TGI,OVCAR-5 ovarian,> 100 µM
same,TGI,IGROV1 ovarian,> 100 µM
same,TGI,HS 578T breast,> 100 µM
same,TGI,NCI-H226 lung,> 100 µM
same,TGI,SK-OV-3 ovarian,> 100 µM
same,TGI,MDA-MB-231 breast,98.4 µM
same,TGI,NCI-H522 lung,> 79.5 µM
same,TGI,MCF7 breast,> 100 µM
same,TGI,DU-145 prostate,> 100 µM
same,TGI,PC-3 prostate,60.6 µM
same,TGI,HL-60(TB) leukemia,55.2 µM
same,TGI,UACC-62 melanoma,> 100 µM
same,TGI,SNB-75 CNS,> 76.5 µM
same,TGI,SW-620 colon,> 100 µM
same,TGI,SF-295 CNS,> 100 µM
same,TGI,SK-MEL-28 melanoma,38.4 µM
same,TGI,BT-549 breast,> 100 µM
same,TGI,OVCAR-4 ovarian,> 100 µM
O=C1C=CC(=O)c2c1ccc1c3ccccc3n(-c3cccc([N+](=O)[O-])c3)c21,TGI,UO-31 renal,> 10 µM
same,TGI,SK-MEL-5 melanoma,> 10 µM
same,TGI,SK-MEL-2 melanoma,> 10 µM
same,TGI,SF-268 CNS,> 10 µM
same,TGI,SR leukemia,0.961 µM
same,TGI,HCC-2998 colon,> 10 µM
same,TGI,CCRF-CEM leukemia,0.82 µM
same,TGI,U251 CNS,> 10 µM
same,TGI,NCI/ADR-RES ovarian,> 10 µM
same,TGI,MDA-N,4.82 µM
same,TGI,NCI-H460 lung,> 10 µM
same,TGI,EKVX NSCLC,> 9.51 µM
same,TGI,M14 melanoma,3.86 µM
same,TGI,SN12C renal,> 10 µM
same,TGI,A549 NSCLC,> 10 µM
same,TGI,KM12 colon,> 10 µM
same,TGI,OVCAR-3 ovarian,4.57 µM
same,TGI,MALME-3M melanoma,4 µM
same,TGI,LOX IMVI melanoma,> 10 µM
same,TGI,A498 renal,> 10 µM
same,TGI,CAKI-1 renal,5.48 µM
same,TGI,OVCAR-8 ovarian,> 8.25 µM
same,TGI,HCT-15 colon,7.09 µM
same,TGI,RPMI-8226 leukemia,3.9 µM
same,TGI,SF-539 CNS,> 6.82 µM
same,TGI,SNB-19 CNS,> 10 µM
same,TGI,HCT-116 colon,3.91 µM
same,TGI,NCI-H23 lung,6.57 µM
same,TGI,HOP-92 NSCLC,4.05 µM
same,TGI,ACHN renal,3.36 µM
same,TGI,T-47D breast,5.67 µM
same,TGI,COLO 205 colon,3.21 µM
same,TGI,HOP-62 NSCLC,> 10 µM
same,TGI,786-0 renal,3.58 µM
same,TGI,HT29 colon,> 10 µM
same,TGI,UACC-257 melanoma,7.38 µM
same,TGI,MOLT-4 leukemia,1.07 µM
same,TGI,RXF 393 renal,4.48 µM
same,TGI,K-562 leukemia,1.45 µM
same,TGI,TK-10 renal,4.47 µM
same,TGI,MDA-MB-435,4.37 µM
same,TGI,OVCAR-5 ovarian,> 10 µM
same,TGI,IGROV1 ovarian,> 10 µM
same,TGI,HS 578T breast,> 10 µM
same,TGI,NCI-H226 lung,> 10 µM
same,TGI,SK-OV-3 ovarian,> 10 µM
same,TGI,MDA-MB-231 breast,5.81 µM
same,TGI,NCI-H522 lung,3.57 µM
same,TGI,MCF7 breast,> 5.93 µM
same,TGI,DU-145 prostate,> 10 µM
same,TGI,PC-3 prostate,> 10 µM
same,TGI,HL-60(TB) leukemia,1.29 µM
same,TGI,UACC-62 melanoma,> 3.16 µM
same,TGI,SNB-75 CNS,> 10 µM
same,TGI,SW-620 colon,2.79 µM
same,TGI,SF-295 CNS,> 10 µM
same,TGI,SK-MEL-28 melanoma,> 6.36 µM
same,TGI,BT-549 breast,3.31 µM
same,TGI,OVCAR-4 ovarian,> 5.95 µM

# From PubChem BioAssay (NCI)
